The assay concerns the target T1, ChT-L activity of 20S proteasome (Mus musculus, UniProt O09061+O55234).
T1 construct: 20S proteasome purified from mouse liver; from tissue; host or cells: mouse liver
Nature of the assay: Assay for ChT-L activity of 20S proteasome with fluorogenic peptide Suc-Leu-Leu-Val-Tyr-AMC. The class given is biochemical. The settings on record: for IC50: 20S proteasome purified from mouse liver (1 μg), 50 μM Suc-Leu-Leu-Val-Tyr-AMC, 20 mM Tris-HCl pH 7.8, 37 °C, 1 h; for fold higher ChT-L inhibitory activity than the other Cbz series compounds: comparison within the Cbz series; for ChT-L inhibitory activity compared with the control MG132: result in words, versus positive control MG132. How it is done:
Inhibitory activities of peptide aldehydes on the 20S proteasome are assayed in vitro [41]. MG132 was used as the positive control (Table 1).
Assays for proteasome activities. The enzymatic activities of the proteasome were assayed using fluorogenic peptides: Suc-Leu-Leu-Val-Tyr-AMC (Suc represents succinyl and AMC represents […], obtained from Sigma) for ChT-L activity. 20S proteasome purified from mouse liver (1 μg) was incubated with various concentrations of compounds and 50 μM fluorogenic peptides in 20 mM Tris-HCl pH 7.8 (100 μL) at 37 °C for 1 h, respectively. The fluorescence of released AMC was measured by a spectrofluorimeter (Fluostar OPTIMA, BMG Germany) at excitation/emission wavelengths of 380/440 nm and 335/410 nm, respectively. 0.1% DMSO was used as solvent control. Compared with the fluorescence of solvent control, an inhibition rate was calculated and thereafter the IC50 value was deduced.

Non-standard residues stand in square brackets, D forms with d. Residues, ends and D or L forms follow the SMILES beside them. *: point of attachment. Arg(NO2) = N=C(NCCC[C@H](N)C(=O)O)N[N+](=O)[O-]; 2Nal = N[C@@H](Cc1ccc2ccccc2c1)C(=O)O; Tos = Cc1ccc(S(=O)(=O)*)cc1; Cbz = O=C(OCc1ccccc1)*; Boc = CC(C)(C)OC(=O)*; OBn = c1ccc(CO*)cc1; Bn = c1ccc(C*)cc1; OtBu = CC(C)(C)O*

We go through 18 compounds from publication PMC6264673, “Synthesis and SAR Study of Novel Peptide Aldehydes as Inhibitors of 20S Proteasome” (Molecules, 2011).

Broadly, the IC50 is the midpoint of a concentration-inhibition curve. Read a high IC50 as weaker potency in that assay.

For `CC(C)CC(C=O)NC(=O)C(CC(C)C)NC(=O)C(Cc1ccc(OCc2ccccc2)cc1)NC(=O)OC(C)(C)C` [Compound 3q, Boc-L-Tyr(OBn)-L-Leu-L-Leucinal] (Boc-Tyr(Bn)-Leu-Leu-aldehyde; configuration not given here), the concentration for half-maximal inhibition (IC50) is > 50000 nM.

`CC(C)C[C@@H](C=O)NC(=O)[C@H](Cc1ccccc1)NC(=O)[C@H](CCC(=O)OC(C)(C)C)NC(=O)OCc1ccccc1` [Compound 3c, Cbz-L-Glu(OtBu)-L-Phe-L-Leucinal] (Cbz-Glu(OtBu)-Phe-Leu-aldehyde): the midpoint of inhibition, the IC50, lay at 28 ± 6 nM; the “fold higher ChT-L inhibitory activity than the other Cbz series compounds” value is recorded as “about 10 fold”; the “ChT-L inhibitory activity compared with the control MG132” value is “much higher activities than the control MG132”. For the compound `Cc1ccc(S(=O)(=O)NC(=N)NCCCC(NC(=O)OCc2ccccc2)C(=O)NC(CC(C)C)C(=O)NC(C=O)CC(C)C)cc1` [Compound 3g, Cbz-L-Arg(Tos)-L-leu-L-Leucinal] (Cbz-Arg(Tos)-Leu-Leu-aldehyde; configuration not given here), the IC50 is > 50000 nM. With `CC(C)C[C@@H](C=O)NC(=O)[C@H](CC(C)C)NC(=O)[C@H](CCC(=O)OC(C)(C)C)NC(=O)OCc1ccccc1` [Compound 3d, Cbz-L-Glu(OtBu)-L-leu-L-Leucinal] (Cbz-Glu(OtBu)-Leu-Leu-aldehyde), the midpoint of inhibition, the IC50, lay at 89 ± 20 nM; the “fold higher ChT-L inhibitory activity than the other Cbz series compounds” value is reported as “about 10 fold”; the “ChT-L inhibitory activity compared with the control MG132” value was “much higher activities than the control MG132”. Compound “Cbz-L-Phe-L-leu-L-Leucinal [Compound 3e]” yielded an IC50 of 850 ± 47 nM.

`CC(C)C[C@@H](C=O)NC(=O)[C@H](CC(C)C)NC(=O)[C@H](CC(C)C)NC(=O)OCc1ccccc1` [MG132, Cbz-L-Leu-L-Leu-L-Leucinal, reference compound] (Cbz-Leu-Leu-Leu-aldehyde) showed an IC50 of 280 ± 60 nM. Turning to `CC(C)C[C@@H](C=O)NC(=O)[C@H](CC(C)C)NC(=O)[C@H](CCCNC(N)=N[N+](=O)[O-])NC(=O)OCc1ccccc1` [Compound 3f, Cbz-L-Arg(NO2)-L-leu-L-Leucinal] (Cbz-[Arg(NO2)]-Leu-Leu-aldehyde), the IC50 was > 50000 nM. `CC(C)C[C@@H](C=O)NC(=O)[C@H](Cc1ccccc1)NC(=O)[C@H](CC(=O)OCc1ccccc1)NC(=O)OC(C)(C)C` [Compound 3i, Boc-L-Asp(OBzl)-L-Phe-L-Leucinal] (Boc-Asp(OBn)-Phe-Leu-aldehyde) showed an IC50 of 4830 ± 2300 nM.

For the compound `CC(C)C[C@@H](C=O)NC(=O)[C@H](Cc1ccccc1)NC(=O)[C@H](CCC(=O)OCc1ccccc1)NC(=O)OC(C)(C)C` [Compound 3k, Boc-L-Glu(OBzl)-L-Phe-L-Leucinal] (Boc-Glu(OBn)-Phe-Leu-aldehyde), the midpoint of inhibition, the IC50, lay at 7140 ± 1930 nM. On to `CC(C)CC(C=O)NC(=O)C(CC(C)C)NC(=O)C(COCc1ccccc1)NC(=O)OC(C)(C)C` [Compound 3o, Boc-L-Ser(OBn)-L-Leu-L-Leucinal] (Boc-Ser(Bn)-Leu-Leu-aldehyde; configuration not given here), for which the IC50 was found to be 50 ± 2 nM and the “ChT-L inhibitory activity compared with the control MG132” value is “much higher activities than the control MG132”. `CC(C)CC(C=O)NC(=O)C(Cc1ccccc1)NC(=O)C1CCCN1C(=O)OC(C)(C)C` [Compound 3m, Boc-L-Pro-L-Phe-L-Leucinal] (Boc-Pro-Phe-Leu-aldehyde; configuration not given here): the IC50 is > 50000 nM.

On to `CC(C)CC(C=O)NC(=O)C(CC(C)C)NC(=O)C(NC(=O)OC(C)(C)C)C(C)OCc1ccccc1` [Compound 3p, Boc-L-Thr(OBn)-L-Leu-L-Leucinal] (Boc-Thr(Bn)-Leu-Leu-aldehyde; configuration not given here), for which the IC50 was found to be 290 ± 21 nM. Same read-out and setting: the figure for `CC(C)CC(C=O)NC(=O)C(CC(C)C)NC(=O)C(CC(=O)OC(C)(C)C)NC(=O)OCc1ccccc1` [Compound 3b, Cbz-L-Asp(OtBu)-L-Leu-L-Leucinal] (Cbz-Asp(OtBu)-Leu-Leu-aldehyde; configuration not given here) is 200 ± 35 nM. The compound `CC(C)C[C@@H](C=O)NC(=O)[C@H](CC(C)C)NC(=O)[C@H](Cc1ccc2ccccc2c1)NC(=O)OCc1ccccc1` [Compound 3h, Cbz-L-(2-Naphthyl)alanine-L-Leu-L-Leucinal] (Cbz-[2Nal]-Leu-Leu-aldehyde) displayed an IC50 of 410 ± 82 nM. For `CC(C)C[C@@H](C=O)NC(=O)[C@H](CC(C)C)NC(=O)[C@H](CCC(=O)OCc1ccccc1)NC(=O)OC(C)(C)C` [Compound 3l, Boc-L-Glu(OBzl)-L-Leu-L-Leucinal] (Boc-Glu(OBn)-Leu-Leu-aldehyde), the IC50 was > 50000 nM. With `CC(C)CC(C=O)NC(=O)C(CC(C)C)NC(=O)C1CCCN1C(=O)OC(C)(C)C` [Compound 3n, Boc-L-Pro-L-Leu-L-Leucinal] (Boc-Pro-Leu-Leu-aldehyde; configuration not given here), the 50% inhibitory concentration (IC50) was > 50000 nM. On the same count and under the same terms, the figure for `CC(C)CC(C=O)NC(=O)C(Cc1ccccc1)NC(=O)C(CC(=O)OC(C)(C)C)NC(=O)OCc1ccccc1` [Compound 3a, Cbz-L-Asp(OtBu)-L-Phe-L-Leucinal] (Cbz-Asp(OtBu)-Phe-Leu-aldehyde; configuration not given here) is 210 ± 14 nM; for `CC(C)CC(C=O)NC(=O)C(CC(C)C)NC(=O)C(CC(=O)OCc1ccccc1)NC(=O)OC(C)(C)C` [Compound 3j, Boc-L-Asp(OBzl)-L-Leu-L-Leucinal] (Boc-Asp(OBn)-Leu-Leu-aldehyde; configuration not given here) it is 20300 ± 2050 nM.
